Source: patent US4801613A, “Bradykinin antagonist peptides” (Nova Technology Limited Partnership, priority 1987, dated 1989)
Read-outs that look alike come from different tables or passages of the source. One block for each compound: values may come before it. Non-standard residues stand in square brackets, D forms with d. Residues, ends and D or L forms follow the SMILES beside them. No end group written: not given here. 2Thi = N[C@@H](Cc1cccs1)C(=O)O

Key:
[1] = test system: isolated guinea pig ileum; assay type: cell-based
Experimental: (§1) The bradykinin antagonists were assayed on isolated rat uterus in natural or induced estrus and on guinea pig ileum, according to the commonly accepted assay methods for bradykinin and related kinins as described by Trautschold (Handbook of Expt. Pharmacol. Vol. 25, Springer Verlag, pp 53-55, 1970) for inhibition of the myotropic activity of bradykinin. The inhibition potencies, as determined according to the commonly accepted manner described by Schild for antagonists of biologically active compounds (Br. J. Pharmacol. 2:189, 1947), are determined on isolated rat uterus (RUT) and isolated guinea pig ileum (GPI). In the assays, a dose-response curve is determined for the reference substance bradykinin. The dose of bradykinin which produced a half maximal contraction of tissue is the ED50 dose. An amount of bradykinin equivalent to twice the ED50 dose is administered to the tissue 30 seconds after the start of incubation of the tissue with a dose of antagonist. Doses of antagonist are increased in this protocol until pre-incubation with a dose of antagonist reduces the contraction in response to the double ED50 dose of bradykinin to response of a single ED50 dose of bradykinin. The pA2 value represents the negative logarithm of the molar concentration of antagonist necessary to reduce the response of a double ED50 dose of bradykinin to that of an ED50 dose. One unit of pA2 value represents an order of magnitude change in potency. For comparison, the negative log of the dose of BK, the dose which causes half maximal contraction of the tissues, is commonly known as the pD2 value. The pD2 value for bradykinin is 7.9 on the rat uterus and 7.4 on the guinea pig ileum.
(§2) In each case, as shown, the BK-related antagonists inhibited contractions produced by BK-related agonists, but had no effect on the non-kinin myotropic peptide substances. The inhibition potencies are listed as pA2 values as described above.

kininases [2] = settings: anesthetized rat; single pass in the pulmonary circulation
kininases [3] = settings: anesthetized rat; Roblero, Ryan and Stewart 1973; cited from earlier work
isolated rat uterus = assay type: cell-based
Experimental: as §1

[4] = Ferreira & Vane 1967; cited from earlier work
kininases [5] = settings: rat, in vivo
guinea pig ileum = assay type: cell-based
Experimental: as §1, §2

Compound: RPPGFSPFR [Bradykinin (BK), Arg-Pro-Pro-Gly-Phe-Ser-Pro-Phe-Arg]
pD2 value (negative log of dose causing half maximal contraction) ([1]; guinea pig ileum): 7.4
% DESTRUCTION (kininases [2]): 98%
destruction on a single passage through the pulmonary circulation (kininases [3]): 98-99%
pD2 value (negative log of dose causing half maximal contraction) (isolated rat uterus; rat uterus): 7.9
half life in the systemic circulation [4]: less than 30 seconds

Compound: N=C(N)NCCC[C@H](NC(=O)[C@H](Cc1cccs1)NC(=O)[C@@H]1CCCN1C(=O)[C@H](CO)NC(=O)[C@H](Cc1cccs1)NC(=O)CNC(=O)[C@@H]1CCCN1C(=O)[C@@H]1CCCN1C(=O)[C@@H](N)CCCNC(=N)N)C(=O)O [Thi^5,8 --BK] (H-RPPG[2Thi]SP[2Thi]R-OH)
% DESTRUCTION (kininases [2]): 95%

Compound: N=C(N)NCCC[C@H](NC(=O)[C@H](Cc1ccccc1)NC(=O)[C@@H]1CCCN1C(=O)[C@H](CO)NC(=O)[C@H](Cc1ccccc1)NC(=O)CNC(=O)[C@@H]1CCCN1C(=O)[C@@H]1CCCN1C(=O)[C@H](CCCNC(=N)N)NC(=O)[C@H](CCCCN)NC(=O)[C@@H](N)CCCCN)C(=O)O [Lys--Lys--BK]
% DESTRUCTION (kininases [5]): 0%

Compound: N=C(N)NCCC[C@H](NC(=O)[C@H](Cc1cccs1)NC(=O)[C@@H]1CCCN1C(=O)[C@H](CO)NC(=O)[C@H](Cc1cccs1)NC(=O)CNC(=O)[C@@H]1CCCN1C(=O)[C@@H]1CCCN1C(=O)[C@H](CCCNC(=N)N)NC(=O)[C@H](CCCCN)NC(=O)[C@@H](N)CCCCN)C(=O)O [Lys--Lys--Thi^5,8 --BK] (H-KKRPPG[2Thi]SP[2Thi]R-OH)
% DESTRUCTION (kininases [2]): 0%

Compound: N=C(N)NCCC[C@@H](N)C(=O)N[C@@H](CCCNC(=N)N)C(=O)N1CCC[C@H]1C(=O)N1CCC[C@H]1C(=O)NCC(=O)N[C@@H](Cc1ccccc1)C(=O)N[C@@H](CO)C(=O)N[C@H](Cc1ccccc1)C(=O)N[C@@H](Cc1ccccc1)C(=O)N[C@@H](CCCNC(=N)N)C(=O)O [Example 10, DArg-Arg-Pro-Pro-Gly-Phe-Ser-DPhe-Phe-Arg]
GUINEA PIG ILEUM KAL (pA2) (guinea pig ileum; agonist kallidin (Lys-BK)): 6.0
GUINEA PIG ILEUM MK--BK (pA2) (guinea pig ileum; agonist methionyl-lysyl-BK): 6.3
GPI pA2 [1]: 5.0
GUINEA PIG ILEUM BK (pA2) [1]: 5.6
RUT AG = agonist potency relative to BK = 100 (isolated rat uterus): 0.1%

Second part, the compound after the results:

% DESTRUCTION (kininases [5]): 95%
Compound: NCCCC[C@H](N)C(=O)N[C@@H](CCCN=C(N)N)C(=O)N1CCC[C@H]1C(=O)N1CCC[C@H]1C(=O)NCC(=O)N[C@@H](Cc1ccccc1)C(=O)N[C@@H](CO)C(=O)N1CCC[C@H]1C(=O)N[C@@H](Cc1ccccc1)C(=O)N[C@@H](CCCN=C(N)N)C(=O)O [Lys--BK]

% DESTRUCTION (kininases [5]): 92%
Compound: N=C(N)NCCC[C@@H](N)C(=O)N[C@@H](CCCNC(=N)N)C(=O)N1CCC[C@H]1C(=O)N1CCC[C@H]1C(=O)NCC(=O)N[C@@H](Cc1ccccc1)C(=O)N[C@@H](CO)C(=O)N1CCC[C@H]1C(=O)N[C@@H](Cc1ccccc1)C(=O)N[C@@H](CCCNC(=N)N)C(=O)O [DArg--BK] (H-[dR]RPPGFSPFR-OH)

% DESTRUCTION (kininases [5]): 89%
Compound: N=C(N)NCCC[C@H](NC(=O)[C@H](Cc1ccccc1)NC(=O)[C@@H]1CCCN1C(=O)[C@H](CO)NC(=O)[C@H](Cc1ccccc1)NC(=O)CNC(=O)[C@@H]1CCCN1C(=O)[C@@H]1CCCN1C(=O)[C@H](CCCNC(=N)N)NC(=O)[C@H](N)CCCCN)C(=O)O [DLys--BK]
